# Laboratory results: patent US20200276312A1, “Elimination of chronic pain by chronic activation of adenosine receptor type A1 in peripheral sensory neurons” (University of Rochester, priority 2019, published 2020)
# “Also recorded” adds a separate entry of the source.
# Experiments:
# [1] = tested on: mice with MIA-induced inflammatory chronic pain; assay: von Frey mechanical sensitivity in MIA-induced inflammatory chronic pain; assay type: in vivo, mouse; details: for acupuncture-induced RHyp (resolution of hypersensitivity): agent given with repetitive acupuncture (DPCPX, topical lidocaine at ST36; caffeine oral 0.1 mg/ml); for acupuncture-induced acute analgesia: agent applied at ST36 prior to each acupuncture
# Excerpt: To assess if repetitive application of acupuncture produces an extension of transient analgesia or RHyp, inflammatory chronic pain was induced by administering monosodium iodoacetate (MIA) in the hind limb knee joints of mice (FIG. 1A and FIG. 5A), in which spreading of hypersensitivity (hyperalgesia and allodynia) in the limb develops in 3 weeks and never wears off thereafter (Combe et al., 2004, Neurosci Lett 370:236-240; Ogbonna et al., 2015, Age (Dordr) 37:9792; Rahman & Dickenson, 2015, Neuroscience 295:103-116). […] Manual acupuncture, given twice a week at ST36, induced acute analgesia in weeks 2 and 3 as well. […] This delayed-onset reduction of hypersensitivity was not a result of loss of the knee arthritis pathology, as indicated by the synovial membrane hypertrophy (FIG. 5B). […] In order to identify the cell type whose A1R mediates acute analgesia and RHyp, transgenic mice with conditional deletion of A1R selectively in sensory neurons were generated (Akopian et al, 1996, Nature 379:257-262; Stirling et al., 2005, Pain 113:27-36). (FIG. 5C). […] Both acute analgesia and RHyp were absent with repetitive administration of vehicle (FIG. 5D). […] Combined, chronic activation of A1R in sensory neurons resolves sensitization state, which can be induced by repetitive acupuncture.
# Mechanical sensitivity was measured using a slightly modified Semmes-Weinstein von Frey Aesthesiometer touch test. Before beginning the measurement session, animals were acclimated to the acrylic chamber (IITC Life Science, Woodland Hills, Calif.) for 60 minutes per day for two days. Baseline mechanosensitivity was measured at least twice on different days to validate the stable, low mechanosensitivity in all mice prior to pain induction administered on the day of the second measurement. The average of the two measurements was recorded as the baseline sensitivity value. Pain-induced hyper-mechanosensitivity was evaluated three weeks after the intra-articular administration of monosodium iodoacetate (MIA, Sigma-Aldrich, 60 mg/ml, 5 μl) to a knee joint. Of note, most other inflammatory pain models cannot stably sustain hypersensitivity over months. The evaluation was performed by gently applying a thin filament of 0.04 g force to the hind paw of the animals, and the rapid retraction or tapping of the foot was counted as a positive response. A total of six trials were given to a paw in one measurement session with an interval of at least 5 min between each trial. Positive responses in the all trials were recorded, and the data were represented as the percent of positive responses. Percent change in mechanosensitivity by treatments was obtained by subtracting values of percent responses before acupuncture from that after acupuncture for each animal. […] All behavioral measurements were done at the same time of the day during the 12-hour light cycle.
# For acupuncture treatment, animals were placed in a restrainer with the hind leg, ipsilateral to the knee inflammation, secured and loosely stretched. An acupuncture needle (0.20 mm; DBC Spring, Lhasa OMS, Weymouth, Mass.) was gently inserted to ST36 Zusanli point (3-4 mm below and 1-2 mm lateral from the midline from the knee) at a depth of 1.5 mm,^40 then slowly rotated for 1 minute every 3-4 minutes for a 20-minute session while the mice were awake. For sham treatment, the acupuncture needle was inserted in the same way, but then untouched for 20 minutes. The animals were immediately transferred back to the chamber and acclimated for at least 15 minutes before the post-treatment mechanosensitivity measurements. In selected experiments, solution of 2-Chloro-N^6-cyclopentyladenosine (CCPA, Sigma-Aldrich, 100 μM, 5 μl) was administered to ST36 at a depth of 1.5 mm instead of acupuncture needle. 8-Cyclopentyl-1,3-dipropylxanthine (DPCPX, Sigma-Aldrich, 100 µM, 5 μl) was administered to ST36 at a depth of 1.5 mm prior to acupuncture needle insertion. […]
# [2] = tested on: mice with CFA-induced acute inflammatory pain; assay: ankle circumference (swelling) in CFA model; assay type: in vivo, mouse; details: day five, compared to CFA-induced group that received F5-Phe gel
# [3] = tested on: mice with CFA-induced acute inflammatory pain; assay: von Frey mechanical sensitivity in CFA-induced acute inflammatory pain; assay type: in vivo, mouse
# [4] = in vitro release of CCPA from Fmoc-F5-Phe cation hydrogel (HPLC); assay type: physicochemical; details: 37° C.
# Procedure: To determine the amount of CCPA released from a 1 mL hydrogel of the Fmoc-F^5-Phe cation (33.7 mM Fmoc-F^5-Phe cation, 114 mM NaCl, 0.5 mM CCPA) as a function of time, 1.5 mL of isotonic water (114 mM NaCl) was slowly added to the top of the gel to avoid disrupting the gel. This bilayer mixture was sealed in a screw top vial and placed in a 37° C. oven. Aliquots (80 μL) were removed 20 min, 40 min, 60 min, 2 h, 3 h, 4 h, 6 h, 30 h, 54 h, and 78 h after the salt water was initially layered over the gel. After removing each aliquot, the salt solution was immediately replaced with an equal volume of salt solution (80 μL, 114 mM NaCl). Aliquots were assessed by injection onto analytical HPLC instrument in order to determine the amount of CCPA that had been released. A Shimadzu 2010A HPLC instrument equipped with a Phenomenex Gemini 5 micron C18 column (250×4.6 mm) with a guard column was used to determine concentration of the CCPA released into the 1.5 mL salt solution by correlation of integrated peak area to a previously constructed CCPA concentration curve. This concentration was converted to mol of CCPA and the diffusion coefficient was determined using Equation 1. […]
# sciatic nerve tissue = assay: CCPA permeability into sciatic nerve in vivo; set-up: species or system mouse
# Procedure: For quantification of CCPA permeability, parafilm (7×20 mm) was placed underneath of the exposed sciatic nerve which was then covered with a custom-made enclosure (6.5 mm length plastic tube, 1.5 mm inner diameter with 120° opening) to control the length of nerve exposed to the drugs. The enclosure surrounding the nerve was gently filled with 10 μl of CCPA (5 mM) alone or a mixture of CCPA and an ENT1/2 inhibitor, 6-S-[(4-Nitrophenyl)methyl]-6-thioinosine (NBMPR, Thermo Fisher, 1 mM). After 90 minutes, the nerve was washed with PBS, extracted (6 mm length), and stored at −80° C. Tissues were homogenized in methanol using FastPrep-24 5G with CoolPrep adapter (MP Biomedicals) and incubated for 12-14 hours at −20° C. After centrifuging at 12,000 g for 15 minutes, the supernatants were dried down in CentriVap concentrator and then reconstituted in 50% DMSO. In the pilot studies, it was confirmed that highest recovery rate of CCPA was obtained with homogenization in methanol, compared to that in ethanol or HEPES buffer solution followed by ultrafilteration, and recovery rate was calculated as 95.19%. The concentrations of CCPA in samples were quantified by HPLC.
structure (smiles),measurement,setting,value
Cn1c(=O)c2c(ncn2C)n(C)c1=O [caffeine],acupuncture-induced RHyp (resolution of hypersensitivity),[1],abolished
CCN(CC)CC(=O)Nc1c(C)cccc1C [lidocaine],acupuncture-induced acute analgesia,[1],loss of acupuncture-induced acute analgesia
same,acupuncture-induced RHyp (resolution of hypersensitivity),[1],RHyp was induced
same,hind paw sensitivity,[1]; topical 5% lidocaine at ST36 without acupuncture,no changes in hind paw hypersensitivity; also recorded: did not modulate hind paw sensitivity
"CCCn1c(=O)c2[nH]c(C3CCCC3)nc2n(CCC)c1=O [DPCPX, 8-Cyclopentyl-1,3-dipropylxanthine]",acupuncture-induced acute analgesia,[1],inhibited the manifestation
same,acupuncture-induced RHyp (resolution of hypersensitivity),[1],inhibited the manifestation
COc1cccc(C2(O)CCCCC2CN(C)C)c1 (stereo not drawn) [tramadol],acute analgesia and RHyp,[1]; repetitive systemic administration,gradual loss of acute analgesia instead of RHyp
"O=C(O)Cc1ccccc1Nc1c(Cl)cccc1Cl [Dcf, diclofenac]",ankle circumference,[2],slightly lower circumferences
same,mechanical sensitivity,"[3]; from 24 h after injection over the final 13 days, 0.1 mg/mL, 10 μL",~80%
same,relative percentage of hind paw sensitivity,"[3]; within hours of injection, versus gel lacking diclofenac",decreased significantly
"CCCC(=O)Nc1ncnc2c1ncn2[C@@H]1O[C@@H]2COP(=O)(O)O[C@H]2[C@H]1OC(=O)CCC [dbcAMP, N^6,O^2-dibutyryladenosine 3,5-cyclic monophosphate]",delay of onset of RHyp,"[1]; co-delivered with CCPA by F5-Phe, submuscular at ST36",3 weeks
"OC[C@H]1O[C@@H](n2cnc3c(NC4CCCC4)nc(Cl)nc32)[C@H](O)[C@@H]1O [CCPA, 2-Chloro-N^6-cyclopentyladenosine]","response of hypersensitivity (acute analgesia, RHyp)","[1]; A1R conditional knockout (A1RcKO) mice, repetitive administration",unresponsive
same,re-emergence of hypersensitivity,"[1]; WT animals, post-treatment observation period",never re-emerged
same,RHyp,"[1]; repetitive CCPA solution (100 μM, 5 μl) at ST36 instead of acupuncture",induced RHyp
same,diffusion coefficient of CCPA release,"[4]; 1 mL gel, 33.7 mM gelator, 500 μM CCPA, 114 mM NaCl, first 200 minutes",3.15×10^−9 m^2 min^−1
same,duration of continuous release from F5-Phe hydrogel,[4]; CCPA 500 μM,15 days
same,CCPA entry into sciatic nerve,"sciatic nerve tissue; CCPA 5 mM applied outside the nerve in vivo, 90 minutes",found inside the sciatic nerve tissue
"O=[N+]([O-])c1ccc(CSc2ncnc3c2ncn3[C@@H]2O[C@H](CO)[C@@H](O)[C@H]2O)cc1 [NBMPR, 6-S-[(4-Nitrophenyl)methyl]-6-thioinosine]",effect on CCPA entry into sciatic nerve,sciatic nerve tissue; NBMPR 1 mM mixed with CCPA 5 mM,reduced the CCPA entry
